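Tested at 5 concentrations; 48 h exposure; 96-well plates; endpoints linearly interpolated, else capped at highest concentration. GI50 = concentration required for 50% inhibition of growth.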 Activity calls are given as the source filed them. No stated cut-off is given here; in the data, active = GI50 up to about 1.1 µM and inactive = higher.
Tests used:
Test in all cases: DTP human tumour cell line panel, 48 h
M19-MEL = system: M19-MEL
HCT-116 = system: HCT-116
DMS-273 = system: DMS-273
SNB-78 = system: SNB-78
LXFL 529 = system: LXFL 529
SN12C = system: SN12C
CAKI-1 = system: CAKI-1
MOLT-4 = system: MOLT-4
NCI-H460 = system: NCI-H460
NCI-H226 = system: NCI-H226
RXF 393 = system: RXF 393
A549 = system: A549
SNB-19 = system: SNB-19
SNB-75 = system: SNB-75
UACC-257 = system: UACC-257
SK-MEL-28 = system: SK-MEL-28
HT-29 = system: HT-29
EKVX = system: EKVX
UACC-62 = system: UACC-62
HL-60 = system: HL-60
HOP-92 = system: HOP-92
M14 = system: M14
LOX IMVI = system: LOX IMVI
SF-295 = system: SF-295
SF-539 = system: SF-539
SK-MEL-5 = system: SK-MEL-5
UO-31 = system: UO-31
Malme-3M = system: Malme-3M
NCI-H23 = system: NCI-H23
CCRF-CEM = system: CCRF-CEM
SK-MEL-2 = system: SK-MEL-2
OVCAR-4 = system: OVCAR-4
HOP-62 = system: HOP-62
HCT-15 = system: HCT-15
SF-268 = system: SF-268
OVCAR-3 = system: OVCAR-3
Hs-578T = system: Hs-578T
MDA-N = system: MDA-N
PC-3 = system: PC-3
RPMI-8226 = system: RPMI-8226
MDA-MB-231 = system: MDA-MB-231
ACHN = system: ACHN
A498 = system: A498
DU-145 = system: DU-145
SR = system: SR
TK-10 = system: TK-10
SK-OV-3 = system: SK-OV-3
U-251 = system: U-251
NCI-H522 = system: NCI-H522
NCI/ADR-RES = system: NCI/ADR-RES
MCF7 = system: MCF7
BT-549 = system: BT-549
MDA-MB-435 = system: MDA-MB-435
OVCAR-8 = system: OVCAR-8
IGROV-1 = system: IGROV-1
KM12 = system: KM12
786-0 = system: 786-0
HCC 2998 = system: HCC 2998
K562 = system: K562
COLO 205 = system: COLO 205
SW-620 = system: SW-620
OVCAR-5 = system: OVCAR-5
T47D = system: T47D

`COc1cc(C2c3cc4c(cc3[C@@H](Nc3ccc(C(=O)O)cc3)C3COC(=O)[C@H]23)OCO4)cc(OC)c1O` (stereo not given in full) was tested, and the GI50 (M19-MEL) was 10 µM (inactive), the GI50 (HCT-116) was 14.5 µM (inactive) and the GI50 (DMS-273) was 5.65 µM (inactive). For the same compound, the GI50 (SNB-78) was 5.78 µM (inactive), the GI50 (LXFL 529) was 5.82 µM (inactive) and the GI50 (SN12C) was > 17.5 µM (inactive). For the same compound, the GI50 (CAKI-1) was 5.93 µM (inactive), the GI50 (MOLT-4) was 0.546 µM (active) and the GI50 (NCI-H460) was 2.01 µM (inactive). The GI50 (NCI-H226) was 4.47 µM (inactive), the GI50 (RXF 393) was 10.5 µM (inactive) and the GI50 (A549) was > 17.5 µM (inactive). For the same compound, the GI50 (SNB-19) was 6.11 µM (inactive), the GI50 (SNB-75) was 6.58 µM (inactive) and the GI50 (UACC-257) was > 17.5 µM (inactive). The GI50 (SK-MEL-28) was > 17.5 µM (inactive), the GI50 (HT-29) was 11.1 µM (inactive) and the GI50 (EKVX) was > 17.5 µM (inactive). For the same compound, the GI50 (UACC-62) was 9.82 µM (inactive), the GI50 (HL-60) was 3.24 µM (inactive) and the GI50 (HOP-92) was 4.81 µM (inactive). For the same compound, the GI50 (M14) was 12.6 µM (inactive), the GI50 (LOX IMVI) was 2.42 µM (inactive) and the GI50 (SF-295) was 8.85 µM (inactive). The GI50 (SF-539) was 4.7 µM (inactive), the GI50 (SK-MEL-5) was 9.77 µM (inactive) and the GI50 (UO-31) was > 17.5 µM (inactive). For the same compound, the GI50 (Malme-3M) was 8.55 µM (inactive), the GI50 (NCI-H23) was 7.74 µM (inactive) and the GI50 (CCRF-CEM) was 2.56 µM (inactive). For the same compound, the GI50 (SK-MEL-2) was 16.6 µM (inactive), the GI50 (OVCAR-4) was 11 µM (inactive) and the GI50 (HOP-62) was 6.11 µM (inactive). The GI50 (HCT-15) was 7.5 µM, the GI50 (SF-268) was 10.8 µM (inactive) and the GI50 (OVCAR-3) was 14.7 µM (inactive).

For `NC(=O)NN=C1Cc2ccccc2C1`, the GI50 (Hs-578T) was > 100 µM (inactive), the GI50 (MDA-N) was > 100 µM (inactive) and the GI50 (PC-3) was > 100 µM (inactive). The GI50 (HCT-116) was > 100 µM (inactive), the GI50 (RPMI-8226) was > 100 µM (inactive) and the GI50 (MDA-MB-231) was > 100 µM (inactive). For the same compound, the GI50 (ACHN) was > 100 µM (inactive), the GI50 (A498) was > 100 µM (inactive) and the GI50 (DU-145) was > 100 µM (inactive). The GI50 (SR) was > 100 µM (inactive), the GI50 (TK-10) was > 100 µM (inactive) and the GI50 (SN12C) was > 100 µM (inactive). For the same compound, the GI50 (SK-OV-3) was > 100 µM (inactive), the GI50 (CAKI-1) was > 100 µM (inactive) and the GI50 (MOLT-4) was > 100 µM (inactive). The GI50 (NCI-H460) was > 100 µM (inactive), the GI50 (U-251) was > 100 µM (inactive) and the GI50 (NCI-H226) was > 100 µM (inactive). The GI50 (RXF 393) was > 100 µM (inactive), the GI50 (A549) was > 100 µM (inactive) and the GI50 (SNB-19) was > 100 µM (inactive). The GI50 (SNB-75) was > 100 µM (inactive), the GI50 (UACC-257) was > 100 µM (inactive) and the GI50 (SK-MEL-28) was > 100 µM (inactive). For the same compound, the GI50 (HT-29) was > 100 µM (inactive), the GI50 (NCI-H522) was > 100 µM (inactive) and the GI50 (EKVX) was > 100 µM (inactive). The GI50 (UACC-62) was > 100 µM (inactive), the GI50 (HL-60) was > 100 µM (inactive) and the GI50 (NCI/ADR-RES) was > 100 µM (inactive). The GI50 (HOP-92) was > 100 µM (inactive), the GI50 (MCF7) was > 100 µM (inactive) and the GI50 (BT-549) was > 100 µM (inactive). For the same compound, the GI50 (MDA-MB-435) was > 100 µM (inactive), the GI50 (OVCAR-8) was > 100 µM (inactive) and the GI50 (IGROV-1) was > 100 µM (inactive). For the same compound, the GI50 (M14) was > 100 µM (inactive), the GI50 (LOX IMVI) was > 100 µM (inactive) and the GI50 (SF-295) was > 100 µM (inactive). For the same compound, the GI50 (KM12) was > 100 µM (inactive), the GI50 (SF-539) was > 100 µM (inactive) and the GI50 (SK-MEL-5) was > 100 µM (inactive). For the same compound, the GI50 (UO-31) was > 100 µM (inactive), the GI50 (786-0) was > 100 µM (inactive) and the GI50 (Malme-3M) was > 100 µM (inactive). For the same compound, the GI50 (NCI-H23) was > 100 µM (inactive), the GI50 (CCRF-CEM) was > 100 µM (inactive) and the GI50 (SK-MEL-2) was > 100 µM (inactive). The GI50 (OVCAR-4) was > 100 µM (inactive), the GI50 (HCC 2998) was > 100 µM (inactive) and the GI50 (K562) was > 100 µM (inactive). For the same compound, the GI50 (COLO 205) was > 100 µM (inactive), the GI50 (HOP-62) was > 100 µM (inactive) and the GI50 (HCT-15) was over 100 µM. The GI50 (SF-268) was > 100 µM (inactive), the GI50 (SW-620) was > 100 µM (inactive) and the GI50 (OVCAR-5) was > 100 µM (inactive). For the same compound, the GI50 (OVCAR-3) was > 100 µM (inactive) and the GI50 (T47D) was > 100 µM (inactive).
